For orientation: Emax means the size of the effect at its maximum, as opposed to the concentration needed. By EC50 is commonly meant the concentration needed to bring the measured effect to its halfway point.

This is an account of results in patent US9868746B2, “Substituted 5-aminothieno[2,3-C]pyridazine-6-carboxamide analogs as positive allosteric modulators of the muscarinic acetylcholine receptor M4” (Vanderbilt University, priority 2012, dated 2018).

The test system of data set [1] is Alzheimer's disease patients. The conditions noted are these: cited from earlier work.
The subject of another data set is animal models. The conditions noted are these: cited from earlier work.
For data set [2] the following is noted: hepatotoxicity of AChE inhibitors such as tacrine; cited from earlier work.
Another data set addresses T1, mAChR M4 (Homo sapiens, UniProt P08173).
T1 construct: expressed in transfected cells; host or cells: CHO-K1 cells stably transfected with M4 cDNA and chimeric G-protein Gqi5
T1 sequence (P08173 1-479): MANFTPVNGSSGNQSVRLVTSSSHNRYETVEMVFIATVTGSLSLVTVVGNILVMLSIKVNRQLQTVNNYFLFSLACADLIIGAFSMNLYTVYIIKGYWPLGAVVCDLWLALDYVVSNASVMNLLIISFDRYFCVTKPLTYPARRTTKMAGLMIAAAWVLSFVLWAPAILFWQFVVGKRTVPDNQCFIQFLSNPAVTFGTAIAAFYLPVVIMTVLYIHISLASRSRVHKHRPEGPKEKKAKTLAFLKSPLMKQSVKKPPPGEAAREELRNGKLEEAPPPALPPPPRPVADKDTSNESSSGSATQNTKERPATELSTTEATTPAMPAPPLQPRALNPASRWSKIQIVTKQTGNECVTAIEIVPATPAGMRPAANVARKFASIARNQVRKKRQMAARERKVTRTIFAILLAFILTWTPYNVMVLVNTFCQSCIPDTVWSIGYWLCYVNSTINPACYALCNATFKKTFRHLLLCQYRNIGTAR
In words: mAChR M4 cell-based functional assay (calcium mobilization, potentiation of EC20 acetylcholine response). The conditions noted are these: for Emax at 30 µM: % ACh maximum at 30 μM; for EC50: mAChR M4 cell-based functional assay, >10,000 estimated for low potency compounds without plateau, read-out: EC50.

Turning to `CCCCCCOc1nsnc1C1=CCCN(C)C1` [xanomeline], in data set [1] (Bodick 1997), the “psychotic behavioral symptoms such as delusions, suspiciousness, vocal outbursts, and hallucinations” value is “reduce psychotic behavioral symptoms”. In addition, the “treatment induced side effects” value in data set [1] is reported as “gastrointestinal effects”. The “catalepsy in animal models” value with animal models (in vivo) is reported as “without causing catalepsy”. The “activity in animal models with similar profiles to known antipsychotic drugs” value in the data set on animal models (muscarinic agonist, Bymaster 1998, 1999, Shannon 1999, 2000) was “active in animal models”.

As for `Nc1c2c(nc3ccccc13)CCCC2` [tacrine], in data set [2], the “elevated liver transaminases observed in patients” value is recorded as “about 30 % of patients”.

As for `Cc1nnc2sc(C(=O)N3CCC(NC(=O)C4CCCCC4)C3)c(N)c2c1C` (centres unmarked) [Example B237], at mAChR M4, the maximal effect (Emax) at 30 µM was determined as 62% and the EC50 was 3400 nM.

With `Cc1nnc2sc(C(=O)NCc3ccc([S+]([O-])C(F)F)cc3)c(N)c2c1C` (single isomer, unassigned) [Example B491], at mAChR M4, the Emax at 30 µM turned out to be 63% and the EC50 was 120 nM.

Consider `Cc1nnc2sc(C(=O)NC3CCN(c4ccccc4Cl)C3)c(N)c2c1C` (centres unmarked) [Example B264], for which, on mAChR M4, the Emax at 30 µM came out at 71% and the EC50 was 38 nM.

Take `Cc1nnc2sc(C(=O)NCc3ccc(=O)n(C)c3)c(N)c2c1C` [Example B444]: at mAChR M4, the maximal effect (Emax) at 30 µM is 65% and the EC50 was over 10000 nM.

Take `COc1ccc(C(C)CNC(=O)c2sc3nnc(C)c(C)c3c2N)cc1` (centres unmarked) [Example B73]: at mAChR M4, the Emax at 30 µM was 40% and the EC50 is 350 nM.

In the case of `Cc1nnc2sc(C(=O)NC3CN(C(=O)c4cccc(Cl)c4)C3)c(N)c2c1C` [Example B392], at mAChR M4, the Emax at 30 µM was found to be 60% and the EC50 was 74 nM.

As to `Cc1nnc2sc(C(=O)NCc3ccc(S(C)(=O)=O)cn3)c(N)c2c1C` [Example B329], at mAChR M4, the Emax at 30 µM was 74% and the EC50 is 780 nM.

In the case of `Cc1nnc2sc(C(=O)N3CC4(CN(C(=O)c5ccccc5)C4)C3)c(N)c2c1C` [Example B404], at mAChR M4, the Emax at 30 µM is 50% and the EC50 is over 10000 nM.

On to `Cc1nnc2sc(C(=O)N[C@H]3CCN(c4ccccc4)C3)c(N)c2c1C` [Example B193], for which, at mAChR M4, the Emax at 30 µM came to 63% and the EC50 was 14 nM.

For the compound `Cc1nnc2sc(C(=O)N[C@@H]3CCN(S(C)(=O)=O)C3)c(N)c2c1C` [Example B77], on mAChR M4, the Emax at 30 µM was 53% and the EC50 was 3500 nM.

As to `Cc1nnc2sc(C(=O)N3CC4CN(S(C)(=O)=O)CC4C3)c(N)c2c1C` (centres unmarked) [Example B277], on mAChR M4, the Emax at 30 µM was 56% and the EC50 is over 10000 nM.

Take `Cc1nnc2sc(C(=O)N3CCC(NS(=O)(=O)c4cccc(F)c4)C3)c(N)c2c1C` (centres unmarked) [Example B211]: on mAChR M4, the Emax at 30 µM is 70% and the 50% effective concentration (EC50) was 1400 nM.

Take `Cc1nnc2sc(C(=O)N3CC4CN(c5ccc(C#N)nc5)CC4C3)c(N)c2c1C` (centres unmarked) [Example B436]: on mAChR M4, the maximum response (Emax) at 30 µM was found to be 49% and the 50% effective concentration (EC50) is 980 nM.

As to `Cc1nnc2sc(C(=O)N3CCC(NC(=O)CCc4ccccc4)C3)c(N)c2c1C` (centres unmarked) [Example B249], on mAChR M4, the Emax at 30 µM was 48% and the EC50 is over 10000 nM.

On to `Cc1nnc2sc(C(=O)N3CC4(CN(C(=O)OCc5ccccc5)C4)C3)c(N)c2c1C` [Example B398], for which, at mAChR M4, the Emax at 30 µM came out at 47% and the EC50 is 1000 nM.

In the case of `Cc1nnc2sc(C(=O)N3CC(NCc4ccccc4)C3)c(N)c2c1C` [Example B65], at mAChR M4, the Emax at 30 µM is 56% and the EC50 is 3600 nM.

Turning to `COc1cccc(S(=O)(=O)NC2CCN(C(=O)c3sc4nnc(C)c(C)c4c3N)C2)c1` (centres unmarked) [Example B213], at mAChR M4, the Emax at 30 µM worked out at 65% and the EC50 is 4500 nM.

For the compound `Cc1nnc2sc(C(=O)N3CC(F)(c4ccc(Cl)cc4)C3)c(N)c2c1C` [Example B295], on mAChR M4, the Emax at 30 µM is 54% and the EC50 is over 10000 nM.

In the case of `Cc1nnc2sc(C(=O)NCc3ccc(S(C)(=O)=O)cc3)c(N)c2c1C` [Example B23], at mAChR M4, the Emax at 30 µM amounted to 83% and the EC50 was 450 nM.

Turning to `Cc1nnc2sc(C(=O)NC3CCN(C(=O)Cc4ccccc4)C3)c(N)c2c1C` (centres unmarked) [Example B235], at mAChR M4, the Emax at 30 µM is 72% and the EC50 is 360 nM.

`Cc1ccc(S(=O)(=O)NC2CN(C(=O)c3sc4nnc(C)c(C)c4c3N)C2)cc1` [Example B183]: at mAChR M4, the maximum response (Emax) at 30 µM amounted to 47% and the EC50 is 490 nM.

`Cc1nnc2sc(C(=O)N3C[C@@H]4C[C@@H]3CN4S(C)(=O)=O)c(N)c2c1C` [Example B267]: at mAChR M4, the Emax at 30 µM amounted to 51% and the EC50 is 5100 nM.

Turning to `Cc1cncc(-c2ccc(CNC(=O)c3sc4nnc(C)c(C)c4c3N)cc2)c1` [Example B499], at mAChR M4, the Emax at 30 µM was determined as 71% and the EC50 was 200 nM.

For the compound `Cc1nnc2sc(C(=O)NCc3ccc(-c4ccccc4O)cc3)c(N)c2c1C` [Example B494], at mAChR M4, the Emax at 30 µM turned out to be 75% and the EC50 was 190 nM.

In the case of `Cc1nnc2sc(C(=O)NCc3ccc(C(C)(O)C(F)(F)F)cc3)c(N)c2c1C` (single isomer, unassigned) [Example B186], on mAChR M4, the Emax at 30 µM was found to be 75% and the EC50 was 19 nM.

Take `Cc1nnc2sc(C(=O)N3CC(F)(c4ccc(-c5cccnc5)cc4)C3)c(N)c2c1C` [Example B320]: on mAChR M4, the Emax at 30 µM came to 42% and the EC50 is 130 nM.

For `Cc1nnc2sc(C(=O)NC3CCN(C(=O)c4ccc(F)cc4F)C3)c(N)c2c1C` (centres unmarked) [Example B228], on mAChR M4, the Emax at 30 µM stood at 81% and the EC50 was 350 nM.

Regarding `Cc1nnc2sc(C(=O)N3CCC4(CN(C(=O)OC(C)(C)C)C4)C3)c(N)c2c1C` [Example B194], at mAChR M4, the maximum response (Emax) at 30 µM is 30% and the EC50 is 4700 nM.

As for `Cc1nnc2sc(C(=O)NCc3ccc4[nH]c(C)c(C)c4c3)c(N)c2c1C` [Example B250], on mAChR M4, the Emax at 30 µM was determined as 75% and the EC50 is 190 nM.

Regarding `Cc1nnc2sc(C(=O)NC3CCN(c4ccncc4)C3)c(N)c2c1C` (centres unmarked) [Example B266], at mAChR M4, the Emax at 30 µM came to 70% and the EC50 was 220 nM.

Consider `Cc1nnc2sc(C(=O)NCCNC(=O)c3ccccc3)c(N)c2c1C` [Example B347], for which, at mAChR M4, the Emax at 30 µM worked out at 59% and the EC50 is 1500 nM.

Consider `Cc1nnc2sc(C(=O)NCc3ccc(-c4cc(C)c5[nH]ncc5c4)cc3)c(N)c2c1C` [Example B474], for which, at mAChR M4, the maximal response (Emax) at 30 µM is 82% and the EC50 was 460 nM.

Consider `Cc1ccc(S(=O)(=O)N2CC(NC(=O)c3sc4nnc(C)c(C)c4c3N)C2)s1` [Example B98], for which, at mAChR M4, the Emax at 30 µM is 66% and the EC50 is 63 nM.

`CCCCCC(=O)N1CC(NC(=O)c2sc3nnc(C)c(C)c3c2N)C1` [Example B152]: on mAChR M4, the Emax at 30 µM amounted to 85% and the EC50 is 110 nM.

As for `Cc1nnc2sc(C(=O)NC3CCN(S(=O)(=O)c4ccccc4)C3)c(N)c2c1C` (centres unmarked) [Example B229], at mAChR M4, the Emax at 30 µM was 68% and the EC50 is 550 nM.

On to `Cc1nnc2sc(C(=O)NCc3ccc(S(=O)(=O)C(F)F)c(F)c3)c(N)c2c1C` [Example B468], for which, at mAChR M4, the Emax at 30 µM came to 85% and the EC50 was 16 nM.
